Experimental data taken from patent publication US10448639B2, “Fungicidal pyrazoles” (FMC CORPORATION, priority 2009, dated 2019).
Where two headings read alike, the source gives them in different places.

Experiments:
[1] = test system: Puccinia recondita f. sp. tritici; experiment: Test I: wheat leaf rust, preventive spray on wheat seedlings, visual disease rating; conditions: for pest or weed control at 200 µg/mL: 192 h; for Test I rating (% disease control): wheat leaf rust, preventive spray, 100 = 100% disease control, 0 = no control
Botrytis cinerea = experiment: Test B: tomato Botrytis, preventive spray on tomato seedlings, visual disease rating; conditions: for pest or weed control at 200 µg/mL: Botrytis cinerea, in Solanum lycopersicum, 120 h; for Test B rating (% disease control): tomato Botrytis, preventive spray, 100 = 100% disease control, 0 = no control
Septoria tritici = experiment: Test G: wheat leaf blotch, preventive spray on wheat seedlings, visual disease rating; conditions: for pest or weed control at 200 µg/mL: Zymoseptoria tritici, in Triticum aestivum, 504 h; for Test G rating (% disease control): wheat leaf blotch, preventive spray, 100 = 100% disease control, 0 = no control
Alternaria solani = experiment: Test C: tomato early blight, preventive spray on tomato seedlings, visual disease rating; conditions: for pest or weed control at 200 µg/mL: Alternaria solani, in Solanum lycopersicum, 168 h; for Test C rating (% disease control): tomato early blight, preventive spray, 100 = 100% disease control, 0 = no control
[2] = test system: Erysiphe graminis f sp. tritici; experiment: Test J: wheat powdery mildew, preventive spray on wheat seedlings, visual disease rating; conditions: for pest or weed control at 200 µg/mL: Blumeria graminis, in Triticum aestivum, 192 h; for Test J rating (% disease control): wheat powdery mildew, preventive spray, 100 = 100% disease control, 0 = no control
From the text: General protocol for preparing test suspensions for Tests A-J: the test compounds were first dissolved in acetone in an amount equal to 3% of the final volume and then suspended at the desired concentration (in ppm) in acetone and purified water (50/50 mix by volume) containing 250 ppm of the surfactant Trem® 014 (polyhydric alcohol esters). The resulting test suspensions were then used in Tests A-J. Spraying a 200 ppm test suspension to the point of run-off on the test plants was the equivalent of a rate of 500 g/ha. Unless otherwise indicated, the rating values indicate a 200 ppm test suspension was used. (An asterisk “*” next to the rating value indicates a 40 ppm test suspension was used.)
The test suspension was sprayed to the point of run-off on wheat seedlings. The following day the seedlings were inoculated with a spore dust of Erysiphe graminis f sp. tritici, (the causal agent of wheat powdery mildew) and incubated in a growth chamber at 20° C. for 8 days, after which time visual disease ratings were made.

Septoria nodorum = experiment: Test F: Septoria glume blotch, preventive spray on wheat seedlings, visual disease rating; conditions: for pest or weed control at 200 µg/mL: Parastagonospora nodorum, in Triticum aestivum, 192 h; for Test F rating (% disease control): Septoria glume blotch on wheat, preventive spray, 100 = 100% disease control, 0 = no control
[3] = test system: Puccinia recondita f. sp. tritici; experiment: Test H: wheat leaf rust, curative spray on inoculated wheat seedlings, visual disease rating; conditions: for pest or weed control at 200 µg/mL: 144 h; for Test H rating (% disease control): wheat leaf rust, curative spray, 100 = 100% disease control, 0 = no control
[4] = read-out: Test I rating (% disease control)
[5] = read-out: Test B rating (% disease control)
[6] = read-out: Test G rating (% disease control)
[7] = read-out: Test C rating (% disease control)
[8] = read-out: Test J rating (% disease control)
[9] = read-out: Test F rating (% disease control)
[10] = read-out: Test H rating (% disease control)
[11] = read-out: Test I disease control rating
[12] = read-out: Test B disease control rating
[13] = read-out: Test G disease control rating
[14] = read-out: Test C disease control rating
[15] = read-out: Test J disease control rating
[16] = read-out: Test F disease control rating
[17] = read-out: Test H disease control rating

| Structure (SMILES) | pest or weed control at 200 µg/mL [1, 4] [%] | pest or weed control at 200 µg/mL (Botrytis cinerea; [5]) [%] | pest or weed control at 200 µg/mL (Septoria tritici; [6]) [%] | pest or weed control at 200 µg/mL (Alternaria solani; [7]) [%] | pest or weed control at 200 µg/mL [2, 8] [%] | pest or weed control at 200 µg/mL (Septoria nodorum; [9]) [%] | pest or weed control at 200 µg/mL [3, 10] [%] | pest or weed control at 200 µg/mL [1, 11] [%] | pest or weed control at 200 µg/mL (Botrytis cinerea; [12]) [%] | pest or weed control at 200 µg/mL (Septoria tritici; [13]) [%] | pest or weed control at 200 µg/mL (Alternaria solani; [14]) [%] | pest or weed control at 200 µg/mL [2, 15] [%] | pest or weed control at 200 µg/mL (Septoria nodorum; [16]) [%] | pest or weed control at 200 µg/mL [3, 17] [%] | also measured |
| --- | --- | --- | --- | --- | --- | --- | --- | --- | --- | --- | --- | --- | --- | --- | --- |
| Cc1nn(C)c(Nc2c(F)cccc2F)c1-c1ccc(F)cc1Cl [Compound 172, 4-(2-chloro-4-fluorophenyl)-N-(2,6-difluorophenyl)-1,3-dimethyl-1H-pyrazol-5-amine] | 99 | 100 | 100 | 100 | 100 | 87 | 0 | – | – | – | – | – | – | – | – |
| Cc1nn(C)c(Nc2ccc(F)cc2Cl)c1-c1ccc(F)cc1Cl [Compound 175, N,4-bis(2-chloro-4-fluorophenyl)-1,3-dimethyl-1H-pyrazol-5-amine] | 99 | 100 | 96 | 99 | 100 | 82 | 93 | – | – | – | – | – | – | – | – |
| Cc1nn(C)c(Nc2ccc(F)cc2Cl)c1-c1c(F)cccc1Cl [Compound 193, N-(2-chloro-4-fluorophenyl)-4-(2-chloro-6-fluorophenyl)-1,3-dimethyl-1H-pyrazol-5-amine] | 99 | 99 | 100 | 100 | 100 | 0 | 32 | – | – | – | – | – | – | – | – |
| Cc1nn(C)c(Oc2c(F)cc(C#N)cc2F)c1-c1ccc(F)cc1Br [Compound 232, 4-[[4-(2-bromo-4-fluorophenyl)-1,3-dimethyl-1H-pyrazol-5-yl]oxy]-3,5-difluorobenzonitrile] | 100 | 100 | 100 | 99 | 100 | 99 | 0 | – | – | – | – | – | – | – | – |
| Cc1nn(C)c(Nc2ccc(F)cc2Br)c1-c1ccc(F)cc1Cl [Compound 265, N-(2-bromo-4-fluorophenyl)-4-(2-chloro-4-fluorophenyl)-1,3-dimethyl-1H-pyrazol-5-amine] | 100 | 100 | 100 | 99 | 100 | 78 | 90 | – | – | – | – | – | – | – | – |
| Cc1nn(C)c(Nc2c(F)cc(F)cc2F)c1-c1ccc(F)cc1Br [Compound 266, 4-(2-bromo-4-fluorophenyl)-1,3-dimethyl-N-(2,4,6-trifluorophenyl)-1H-pyrazol-5-amine] | 100 | 100 | 100 | 100 | 100 | 98 | 0 | – | – | – | – | – | – | – | – |
| Cc1nn(C)c(Nc2c(F)cc(F)cc2Cl)c1-c1ccc(F)cc1Br [Compound 292, 4-(2-bromo-4-fluorophenyl)-N-(2-chloro-4,6-difluorophenyl)-1,3-dimethyl-1H-pyrazol-5-amine] | 100 | 100 | 100 | 99 | 100 | 96 | 92 | – | – | – | – | – | – | – | – |
| Cc1nn(C)c(Nc2c(F)cc(F)cc2Cl)c1-c1c(F)cccc1F [Compound 297, N-(2-chloro-4,6-difluorophenyl)-4-(2,6-difluorophenyl)-1,3-dimethyl-1H-pyrazol-5-amine] | 100 | 100 | 100 | 99 | 100 | 90 | 0 | – | – | – | – | – | – | – | – |
| Cc1nn(C)c(Nc2c(F)cc(Cl)cc2F)c1-c1ccc(C#N)cc1Cl [Compound 336, 3-chloro-4-[5-[(4-chloro-2,6-difluorophenyl)amino]-1,3-dimethyl-1H-pyrazol-4-yl]-benzonitrile] | – | – | – | – | – | – | – | 100 | 100 | 100 | 97 | 99 | 95 | 94 | – |
| Cc1nn(C)c(Nc2c(F)cc(F)cc2Cl)c1-c1ccc(F)cc1F [Compound 343, N-(2-chloro-4,6-difluorophenyl)-4-(2,4-difluorophenyl)-1,3-dimethyl-1H-pyrazol-5-amine] | – | – | – | – | – | – | – | 100 | 100 | 100 | 100 | 100 | 97 | 91 | – |
| Cc1nn(C)c(Nc2c(F)cc(Cl)cc2F)c1-c1ccc(F)cc1F [Compound 357, N-(4-chloro-2,6-difluorophenyl)-4-(2,4-difluorophenyl)-1,3-dimethyl-1H-pyrazol-5-amine] | – | – | – | – | – | – | – | 99 | 100 | 100 | 86 | 100 | 87 | 0 | – |
| Cc1nn(C)c(Oc2ccc(C#N)cc2Cl)c1-c1c(F)cccc1F [Compound 358, 3-chloro-4-[[4-(2,6-difluorophenyl)-1,3-dimethyl-1H-pyrazol-5-yl]oxy]benzonitrile] | – | – | – | – | – | – | – | 97 | 99 | 100 | 0 | 97 | 0 | 0 | – |
| Cc1nn(C)c(Nc2c(F)cc(Cl)cc2F)c1-c1ccc(F)cc1Br [Compound 360, 4-(2-bromo-4-fluorophenyl)-N-(4-chloro-2,6-difluorophenyl)-1,3-dimethyl-1H-pyrazol-5-amine] | – | – | – | – | – | – | – | 100 | 100 | 100 | 97 | 100 | 95 | 79 | – |
| Cc1nn(C)c(Oc2ccc(C#N)cc2F)c1-c1c(F)cccc1F [Compound 361, 4-[[4-(2,6-difluorophenyl)-1,3-dimethyl-1H-pyrazol-5-yl]oxy]-3-fluorobenzonitrile] | – | – | – | – | – | – | – | 100 | 100 | 100 | 90 | 100 | 0 | 0 | – |
| Cc1nn(C)c(Nc2c(F)cc(Br)cc2F)c1-c1ccc(F)cc1F [Compound 364, N-(4-bromo-2,6-difluorophenyl)-4-(2,4-difluorophenyl)-1,3-dimethyl-1H-pyrazol-5-amine] | – | – | – | – | – | – | – | 99 | 99 | 100 | 97 | 100 | 88 | 0 | – |
| Cc1nn(C)c(Nc2c(F)cc(Br)cc2F)c1-c1ccc(F)cc1Cl [Compound 365, N-(4-bromo-2,6-difluorophenyl)-4-(2-chloro-4-fluorophenyl)-1,3-dimethyl-1H-pyrazol-5-amine] | – | – | – | – | – | – | – | 100 | 100 | 100 | 99 | 100 | 64 | 74 | – |
| COc1cc(OC)cc(-c2c(C)nn(C)c2Oc2ccc(Cl)cc2)c1 [compound 16] | – | – | – | – | – | – | – | – | – | – | – | – | – | – | Test I rating (% disease control) [1]: 28%; Test B rating (% disease control) (Botrytis cinerea): 60%; Test G rating (% disease control) (Septoria tritici): 47%; Test C rating (% disease control) (Alternaria solani): 0%; Test J rating (% disease control) [2]: 0%; Test F rating (% disease control) (Septoria nodorum): 0%; Test H rating (% disease control) [3]: 48% |
| Cc1nn(C)c(Nc2ccc(Cl)cc2)c1-c1ccc(F)cc1Cl [compound 19] | – | – | – | – | – | – | – | – | – | – | – | – | – | – | Test I rating (% disease control) [1]: 92%; Test B rating (% disease control) (Botrytis cinerea): 100%; Test G rating (% disease control) (Septoria tritici): 96%; Test C rating (% disease control) (Alternaria solani): 85%; Test J rating (% disease control) [2]: 98%; Test F rating (% disease control) (Septoria nodorum): 0%; Test H rating (% disease control) [3]: 0% |
